Laboratory results reported in ChEMBL document CHEMBL6087482, “Discovery of INCB159020, an Orally Bioavailable KRAS G12D Inhibitor” (J Med Chem, 2025).

Key:
[1] = Apparent permeability across apical to basolateral side in human Caco-2 cells at 50 uM incubated for 120 mins by LC-MS analysis; type: ADME, cell-based
[2] = biological target: GTPase KRas (Homo sapiens, UniProt P01116, G12D); assay: Inhibition of bodipy-loaded KRAS G12D mutant (unknown origin) assessed as GDP-GTP exchange preincubated for 4 hrs followed by GppNHp and SOS1 addition and measured after 2 hrs by fluorescence based plate reader analysis
[3] = Intrinsic clearance in human liver microsomes at 1 uM measured upto 30 mins in presence of NADPH by LC/MS analysis; type: ADME, Microsome; details: read-out: CLH (converted)
[4] = Inhibition of ERK phosphorylation in KRAS G12D mutant dependent human HPAF-II cells incubated for 2 hrs by HTRF assay; type: cell-based
[5] = Inhibition of ERK phosphorylation in KRAS G12D mutant dependent human HPAF-II cells incubated for 2 hrs with human whole blood containing compound by HTRF assay; type: cell-based
[6] = biological target: GTPase KRas (Homo sapiens, UniProt P01116); assay: Binding affinity to KRAS (unknown origin) assessed as dissociation constant by SPR analysis
[7] = Efflux ratio of apparent permeability in human Caco-2 cells at 50 uM incubated for 120 mins by LC-MS analysis; type: ADME, cell-based

Sequence of GTPase KRas (Homo sapiens, UniProt P01116) (P01116 whole entry): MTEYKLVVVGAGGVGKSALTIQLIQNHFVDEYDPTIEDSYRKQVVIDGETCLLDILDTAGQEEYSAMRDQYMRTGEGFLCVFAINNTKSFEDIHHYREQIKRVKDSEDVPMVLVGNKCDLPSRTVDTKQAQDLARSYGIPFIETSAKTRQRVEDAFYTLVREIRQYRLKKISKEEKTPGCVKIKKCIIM

| SMILES | Papp A→B at 2 h, 50 µM [1] [×10⁻⁶ cm/s] | IC50 [2] [nM] | hepatic clearance at 1 µM [3] [mL/min/kg] | IC50 [4] [nM] | IC50 [5] [nM] | Kd [6] [nM] | efflux ratio at 2 h, 50 µM [7] |
| --- | --- | --- | --- | --- | --- | --- | --- |
| Cc1nc2c(F)c(-c3cccc4ccc(F)cc34)c(CCC#N)cc2c2c1cc(CN1CCCCC1=O)n2[C@H]1[C@H]2CN[C@@H]1C2 | 0.7 | 6.1 | > 18.3 | 39 | 1030 |  |  |
| N#CCCc1cc2c(nc(-n3cncn3)c3cc(CN4CCOCC4=O)n([C@H]4[C@H]5CN[C@@H]4C5)c32)c(F)c1-c1cccc2ccc(F)cc12 | 1.7 | 3.7 | > 18.3 | 10 | 519 | 0.84 |  |
| CN(C)C(=O)CCc1cc2c(OC[C@@]34CCCN3C[C@H](F)C4)nc3c(F)c(-c4cc(O)cc5ccccc45)c(CCC#N)cc3c2n1[C@H]1[C@H]2CN[C@@H]1C2 | < 0.1 | 2.1 | > 18.3 | 20 | 410 | < 0.001 |  |
| CN(C)C1CN(c2nc(N3CCNCC3)c3cc(Cl)c(-c4cc(O)cc5ccccc45)c(F)c3n2)C1 |  | 8000 |  |  |  |  |  |
| CCOc1nc2c(F)c(-c3cc(O)cc4ccccc34)c(CCC#N)cc2c2c1cc(CCC(=O)N(C)C)n2[C@H]1[C@H]2CN[C@@H]1C2 | 0.2 | 3.8 | > 18.3 | 28 | 492 | 0.26 |  |
| N#CCCc1cc2c(nc(OC[C@@]34CCCN3C[C@H](F)C4)c3cc(CCC(=O)N4CCC4)n([C@@H]4[C@H]5CN[C@@H]4C5)c32)c(F)c1-c1cccc2ccc(F)cc12 |  |  |  | 62 | 1100 | 0.24 |  |
| Cc1cc2c(nc(N3CC(N(C)C)C3)c3nc(CCC(=O)N(C)C)n([C@H]4[C@H]5CN[C@@H]4C5)c32)c(F)c1-c1cc(O)cc2ccccc12 |  | 12 |  | 1300 |  | 3 |  |
| N#CCCc1cc2c(nc(-c3ccncn3)c3cc(CN4CCOCC4=O)n([C@H]4[C@H]5CN[C@@H]4C5)c32)c(F)c1-c1cccc2ccc(F)cc12 | 1.1 | 3.8 | 11.7 | 17 | 626 |  | 20 |
| Cc1nc2c(F)c(-c3cc(O)cc4ccccc34)c(CCC#N)cc2c2c1cc(CN1CCCCC1=O)n2[C@H]1[C@H]2CN[C@@H]1C2 |  | 3.5 |  | 45 | 597 |  |  |
| CN(C)C(=O)CCc1cc2c(N3CC(C)(N(C)C)C3)nc3c(F)c(-c4cc(O)cc5ccccc45)c(CCC#N)cc3c2n1[C@H]1[C@H]2CN[C@@H]1C2 |  | 3 |  | 104 | 1130 | 0.04 |  |
| CN(C)C1CN(c2nc(N3CC4CCC(C3)N4)c3cc(Cl)c(-c4cc(O)cc5ccccc45)c(F)c3n2)C1 |  | 704 |  |  |  |  |  |
